Here are results for 22 compounds from article PMC7413297 (Journal of immunology (Baltimore, Md. : 1950), 2020).

pIC50: −log10 of the molar value. Like-named read-outs stand apart in the source and are kept apart here. Ends that are not written are not given here. Peptide text beside a SMILES is read from it.

This assay addresses HLA A*02:01 class I molecules (Homo sapiens, UniProt P04439, D140Y/D185E/D98H/E176V/E277Q/G131W/G231S/I119V/I121R/I166T/I218V/L300P/L318F/N151K/N90K/P208A/P217A/Q86G/Q94H/R138H/R169H/T345S). The assay is described as follows: MHC-peptide competitive binding assay.
[1] abbreviates: as standard assay but excluding protease inhibitors.
[2] abbreviates: reducing conditions, 1 mM 2-ME added.
The mark [3] stands for this setting: IC50 2-ME, reducing conditions, 1 mM 2-ME added.
Setting [4] is: IC50 No Protease Inhibitors, as standard assay but excluding protease inhibitors.

As for CISSBNPNL, the “IC50 No Protease Inhibitors” value under setting [1] is recorded as 1,047 ng/ml. The “IC50 2-ME” value under setting [2] stood at 618 ng/mL.

With VLPDVFIRC [reference compound], the pIC50 was 6.34. Besides, the negative logarithm of the IC50 (pIC50) under setting [3] was 7.52. Also, the pIC50 under setting [4] is 6.92.

On to SLLMWITQB, for which the “IC50 No Protease Inhibitors” value under setting [1] worked out at 94 ng/mL.

ILCGTBLIV: the “IC50 No Protease Inhibitors” value under setting [1] was determined as 839 ng/mL. Under setting [2], the “IC50 2-ME” value turned out to be 885 ng/mL.

As to ILCETBLIV, the “IC50 No Protease Inhibitors” value under setting [1] turned out to be 104 ng/mL. For the same compound, the “IC50 2-ME” value under setting [2] came to 93 ng/mL.

1LBETBLIV: the “IC50 No Protease Inhibitors” value under setting [1] was 14 ng/mL. The “IC50 2-ME” value under setting [2] is 24 ng/mL.

For the compound `CC[C@H](C)[C@H](N)C(=O)N[C@@H](CC(C)C)C(=O)N[C@@H](CS)C(=O)N[C@@H](CCC(=O)O)C(=O)N[C@H](C(=O)N[C@@H](CS)C(=O)N[C@@H](CC(C)C)C(=O)N[C@H](C(=O)N[C@H](C(=O)O)C(C)C)[C@@H](C)CC)[C@@H](C)O` [reference compound] (H-ILCETCLIV-OH), the pIC50 was 6.34. Under setting [3], this compound showed a pIC50 of 6.52. Under setting [4], the pIC50 is 6.49.

VLPDVFIRB: the “IC50 No Protease Inhibitors” value under setting [1] is 3.3 ng/mL. Also, the “IC50 2-ME” value under setting [2] is 2.5 ng/mL.

In the case of BISSBNPNL, under setting [1], the “IC50 No Protease Inhibitors” value is 604 ng/mL. Also, under setting [2], the “IC50 2-ME” value is 1,260 ng/ml.

Take ILBETCLIV: under setting [1], the “IC50 No Protease Inhibitors” value was found to be 58 ng/mL. In addition, the “IC50 2-ME” value under setting [2] was determined as 82 ng/mL.

HMTEVVRRC [reference compound]: the negative-log IC50 (pIC50) was 5.05. The compound further had a negative logarithm of the IC50 (pIC50) under setting [3] of 6.04. The compound also showed a pIC50 under setting [4] of 5.99.

Take ACDPHSGHFV [reference compound]: the pIC50 by setting is: under setting [3], 4.90; under setting [4], 5.51.

Take BISSBNPNP: the “IC50 No Protease Inhibitors” value under setting [1] is 17,100 ng/ml. Moreover, the “IC50 2-ME” value under setting [2] was 13,400 ng/ml.

On to CQWGRLWQL [reference compound], for which the pIC50 was 5.92. Under setting [3], this compound had a pIC50 of 6.89. The compound also gave a negative logarithm of the IC50 (pIC50) under setting [4] of 6.02.

For RLPRIFBSB, the “IC50 No Protease Inhibitors” value under setting [1] came to 7.2 ng/mL. Besides, the “IC50 2-ME” value under setting [2] was 14 ng/mL.

For the compound RLPRIFCSB, the “IC50 No Protease Inhibitors” value under setting [1] was 11 ng/mL. For the same compound, the “IC50 2-ME” value under setting [2] is 27 ng/mL.

As for ILBGTBLIV, under setting [1], the “IC50 No Protease Inhibitors” value was found to be 733 ng/mL. Besides, the “IC50 2-ME” value under setting [2] was 1,547 ng/ml.

The compound `CC[C@H](C)[C@H](N)C(=O)N[C@@H](CC(C)C)C(=O)N[C@@H](CS)C(=O)NCC(=O)N[C@H](C(=O)N[C@@H](CS)C(=O)N[C@@H](CC(C)C)C(=O)N[C@H](C(=O)N[C@H](C(=O)O)C(C)C)[C@@H](C)CC)[C@@H](C)O` [reference compound] (H-ILCGTCLIV-OH) had a pIC50 of 6.69. The same compound had a pIC50 under setting [3] of 6.61. The compound also gave a pIC50 under setting [4] of 6.23.

For BQWGRLWQL, the “IC50 No Protease Inhibitors” value under setting [1] came to 121 ng/mL. Moreover, the “IC50 2-ME” value under setting [2] was determined as 93 ng/mL.

Consider SCSRAIPQV [reference compound], for which the pIC50 is 5.82. Further, under setting [3], the pIC50 is 6.68. The same compound showed a pIC50 under setting [4] of 6.26.

In the case of BISSCNPNL, the “IC50 No Protease Inhibitors” value under setting [1] turned out to be 573 ng/mL. Also, the “IC50 2-ME” value under setting [2] was found to be 250 ng/mL.

SCSRAVPQV [reference compound] gave a pIC50 of 4.91. The same compound gave a negative logarithm of the IC50 (pIC50) under setting [3] of 5.61. Under setting [4], this compound had a pIC50 of 5.13.
